# Source: patent US20030065039A1, “Biologically active 1,3-bis-aromatic-prop-2-en-1-ones, 1,3-bis-aromatic-propan-1-ones, and 1,3-bis-aromatic-prop-2-yn-1-ones” (Statens Serum Institute, priority 1997, published 2003)
# Where two headings read alike, the source gives them in different places.
# System: Helicobacter pylori
# Assay: Helicobacter species Assay (agar plate, MIC)
# Assay type: cell-based
# Details: for MIC: 20 strains of H. pylori, agar plate, 72 hours; for No. strains inhibited/No. strains tested: at the MIC of the same line
# Protocol: 20 strains of Helicobacter pylori were used in an agar plate assay. The compounds were incorporated in the agar plates at different concentrations as described in the examples and were then inoculated with different strains of Helicobacter pylori followed by incubation in a microaerophilic atmosphere at 37° C. for 72 hours. The number of colony-forming units (CFU) were counted after the incubation period. The MIC values were determined as the minimal concentration required to inhibit growth of the bacteria.
# (§1) Stock solutions were made at a concentration of 1 mg/ml by dissolving 1 mg of each compound in 100 μl DMSO (dimethylsulfoxide) followed by addition of 900 μl of heat-inactivated fetal claf serum (HFCS). These stock solutions were diluted with HFCS to make solutions having the following concentrations: 320 μg/ml, 160 μg/ml, 80 μg/ml, 40 μg/ml and 20 μg/ml. Dilution rows were made with 3 ml aliquots in vials containing the compounds in the following final test concentrations: 16 μg/ml, 8 μg/ml, 4 μg/ml, 2 μg/ml and 1 μg/ml. As control was used DMSO-HFCS containing an amount of DMSO equal to the amount of test compound in the solution with 320 μg/ml compound.
# Bacteria: 20 strains of Helicobacter pylori were used in an agar plate assay. The compounds were incorporated in the agar plates at different concentrations and then they were inoculated with different strains of Helicobacter pylori followed by incubation at microaerophilic atmosphere at 37° C. in 72 hours. The number of colony-forming units (CFU) were counted after the incubation period. The MIC values were determined as the minimal concentration required to inhibit growth of the bacteria.
# as §1, with “concentrations: 2560 μg/ml, 1280 μg/ml, 640 μg/ml,” for “concentrations:”, “160 µg/ml and” for “160 μg/ml,”, “80” for “80 μg/ml, 40 μg/ml and 20”, “concentrations: 128 μg/ml, 64 μg/ml, 32 μg/ml, 12” for “concentrations: 16”, “8” for “8 μg/ml, 4 μg/ml, 2”, “and 4” for “and 1”
# Bacteria: 20 strains of Helicobacter pylori were used in an agar plate assay. The same method as described above under Experiment A was employed and MIC values were determined.
# [1] = Helicobacter pylori, read-out: MIC
Compound,growth of the strains of H. pylori (FIGS. 1 and 2),strains that gave a MIC value equal to or less than 16 μg/ml (20 strains),MIC,No. strains inhibited/No. strains tested,MIC [1],"strains of Helicobacter pylori inhibited (at a concentration of 16 μg/ml, 20 strains)"
C=CC(C)(C)c1cc(/C=C/C(=O)c2ccc(O)cc2)c(OC)cc1O [Licochalcone A],inhibited the growth of all the strains,20 out of 20,16 µg/mL,20/20,–,–
"COc1cc(/C=C/C(=O)c2ccccc2F)cc(OC)c1 [PH135, 2′-fluoro-3,5-dimethoxychalcone]",inhibited the growth of all the strains,–,–,20/20,32 µg/mL,–
"COc1cc(/C=C/C(=O)c2cccc(F)c2)cc(OC)c1 [PH136, 3′-fluoro-3,5-dimethoxychalcone]",inhibited the growth of all the strains,–,–,15/20,32 µg/mL,–
"COc1cc(/C=C/C(=O)c2ccc([N+](=O)[O-])cc2)cc(OC)c1 [PH105, 4′-nitro-3,5-dimethoxychalcone]",–,–,–,12/20,16 µg/mL,12 out of 20
"COc1cc(/C=C/C(=O)c2ccc(C3CCCCC3)cc2)cc(OC)c1 [PH104, 3,5-dimethoxy-4′-cyclohexylchalcone]",inhibited the growth of all the strains,–,–,15/20,64 µg/mL,–
